Results: US11878972B2, “Treatment of neurological disorders” (TORQUR AG, priority 2016, dated 2024)

Tests used:
[1] = system: pPKB S473 in A2058 cells; assay: In-cell Western blot, pPKB S473; assay type: cell-based; details: treated for 1 hour, normalized to α-tubulin
Procedure: (§1) Cells are fixed with 4% paraformaldehyde for 30 minutes at room temperature, washed 2 times with 1% BSA in PBS, permeabilized with 0.1% Triton X-100 in PBS/1% BSA for 30 minutes at room temperature and blocked with 5% goat serum in PBS/1% BSA/0.1% Triton X-100 for 30 minutes at room temperature. […] Cells are washed 3 times 5 minutes with PBS/1% BSA/0.1% triton and plate scanned with the Odyssey Infrared Scanning system using both 700 and 800 nm channels. […] To correct for background staining in the data analysis wells are treated only with secondary antibodies.
(§2) For data analysis the mean background signal from channel 700 nm and 800 nm are subtracted from each signal in channel 700 nm and 800 nm, respectively.
(§3) IC50 values of each compound are determined by plotting the normalized pPBK S473 and pS6 S235/S236 signals, respectively, versus the compound concentrations (in logarithmic scale) and then by fitting a sigmoidal dose-response curve with variable slope to the data using GraphPad™ Prism.

[2] = system: pS6 S235/S236 in A2058 cells; assay: In-cell Western blot, pS6 S235/S236; assay type: cell-based; details: treated for 1 hour, normalized to α-tubulin
Procedure: as §1, §2, §3

[3] = system: female NMRI mice, nonepileptic (sham-SE) and epileptic (pilo-SE); assay: Maximal electroshock seizure threshold test (MEST); assay type: in vivo, mouse; details: for CC50 / threshold increase: Phenobarbital; for increase of the seizure threshold in MEST: 5 mg/kg rapamycin; for increase of the threshold: rapamycin after intraperitoneal injections
Procedure: A total of 166 adult female NMRI mice were used obtained from Charles River (Sulzfeld, Germany) at a weight range of 21-25 g (mice). Animals were kept under the following conditions: Housing: Animals were housed in groups of max. 8 mice under controlled conditions (temperature: 22±1° C.; humidity: 50% 60%/), under a 12-h light-dark cycle (lights on at 6:00 a.m.). Feeding: Standard laboratory chow (Altromin 1324 standard diet, Altromin Spezialfutter GmbH, Lage, Germany) was provided ad libitum. Drinking water: Tap water was provided ad libitum.
The MEST determines a population seizure threshold in groups of ˜20 animals and not the threshold for an individual animal. In the present study, the MEST was determined by a staircase procedure as previously described. A stimulator (BMT Medizintechnik, Berlin, Germany) that delivered a constant current (adjustable from 1-200 mA regardless of the impedance of the animal) with sinusoidal pulses (50/sec) for 0.2 sec was used.
Current administration was performed via bilateral transcorneal stimulation (using copper electrodes). Before transcorneal stimulation, a drop of tetracaine solution (2%) was administered to the eyes of the mouse for local anesthesia. Two minutes later, the mouse was restrained by hand to press the copper electrodes on both corneas while the stimulus was applied by stepping on a foot pedal switch connected with the stimulator. Electrodes were covered with soft leather and soaked with saline before each current application. […] The first stimulation was started with a current near to the control threshold.
3 (HCl): 40/100 mg in 10 ml (Suspension; 5% PEG 400 and 2% Tween 80, HPBCD (10%6)) • Cpd. 8 (HCl): 12.5/25 mg in 10 ml (5% PEG 400 and 2% Tween 80, HPBCD (10%))
Statistical analysis were calculated using Student's t-test. All tests were used two-sided; a P<0.05 was considered significant.
We performed no special tests for the determination of adverse effects. Mice were observed about 30 min after injection in their home cages for obvious sedation or reduction of wellbeing. Five minutes before electrical stimulation mice were again observed in their home cages and two minutes before stimulation during handling procedure for treatment with local anaesthesia. Every obvious variation from normal behavior was noted. Only phenobarbital induced noticeable sedation which lasted for more than 60 min. All other test drugs (including vehicle solutions) were tolerated without any obvious adverse effects.

[4] = 50 mg/kg Levetiracetam i.p., pretreatment 1 h

Row | Structure (SMILES) | IC50 ([1]; Homo sapiens) | IC50 ([2]; Homo sapiens, A2058, 1 h) | IC50 ([1]; Homo sapiens, A2058, 1 h) | other results
1 | C[C@H]1COCCN1c1nc(-c2cnc(N)nc2C(F)F)nc(N2CCOCC2)n1 [Compound 9, (S)-4-(difluoromethyl)-5-(4-(3-methylmorpholino)-6-morpholino-1,3,5-triazin-2-yl)pyrimidin-2-amine] | 35 nM |  |  | IC50 ([2]; Homo sapiens): 72 nM
2 | Nc1cc(C(F)F)c(-c2nc(N3CCNCC3)nc(N3CCOCC3)n2)cn1 [Compound 12, 4-(difluoromethyl)-5-(4-morpholino-6-(piperazin-1-yl)-1,3,5-triazin-2-yl)pyridin-2-amine] |  |  |  | IC50 [1]: 219 nM; IC50 [2]: 407 nM
3 | Nc1ncc(-c2nc(N3CCNCC3)nc(N3CCOCC3)n2)c(C(F)F)n1 [Compound 13, 4-(difluoromethyl)-5-(4-morpholino-6-(piperazin-1-yl)-1,3,5-triazin-2-yl)pyrimidin-2-amine] |  |  |  | IC50 [1]: 37 nM; IC50 [2]: 120 nM
4 | Nc1cc(C(F)F)c(-c2cc(N3CCOCC3)nc(N3CCOCC3)n2)cn1 [Compound 16, 4-(difluoromethyl)-5-(2,6-dimorpholinopyrimidin-4-yl)pyridin-2-amine] | 207 nM | 184 nM |  | 
5 | Nc1ncc(-c2cc(N3CCOCC3)nc(N3CCOCC3)n2)c(C(F)F)n1 [Compound 17, 4′-(difluoromethyl)-2,6-dimorpholino-[4,5′-bipyrimidin]-2′-amine] |  | 149 nM |  | 
6 | Nc1cc(C(F)F)c(-c2nc(N3CCOCC3)cc(N3CCOCC3)n2)cn1 [Compound 18, 4-(difluoromethyl)-5-(4,6-dimorpholinopyrimidin-2-yl)pyridin-2-amine] | 243 nM | 256 nM |  | 
7 | Nc1cc(C(F)F)c(-c2nc(N3CCOCC3)nc(N3CCSCC3)n2)cn1 [Compound 20, 4-(difluoromethyl)-5-(4-morpholino-6-thiomorpholino-1,3,5-triazin-2-Yl)pyridin-2-amine] |  | 250 nM | 146 nM | 
8 | Nc1ncc(-c2nc(N3CCOCC3)nc(N3CCSCC3)n2)c(C(F)F)n1 [Compound 21, 4-(difluoromethyl)-5-(4-morpholino-6-thiomorpholino-1,3,5-triazin-2-yl)pyrimidin-2-amine] |  | 216 nM | 57 nM | 
9 | C[C@H]1COCCN1c1cc(-c2cnc(N)cc2C(F)F)nc(N2CCOCC2)n1 [Compound 27, (S)-4-(difluoromethyl)-5-(6-(3-methylmorpholino)-2-morpholinopyrimidin-4-yl)pyridin-2-amine] | 614 nM |  |  | IC50 ([2]; Homo sapiens): 766 nM
10 | C[C@H]1COCCN1c1nc(-c2cnc(N)cc2C(F)F)cc(N2CCOCC2)n1 [Compound 31, (S)-4-(difluoromethyl)-5-(2-(3-methylmorpholino)-6-morpholinopyrimidin-4-yl)pyridin-2-amine] | 146 nM |  |  | IC50 ([2]; Homo sapiens): 124 nM
11 | C[C@H]1COCCN1c1nc(-c2cnc(N)nc2C(F)F)cc(N2CCOCC2)n1 [Compound 32, (S)-4′-(difluoromethyl)-2-(3-methylmorpholino)-6-morpholino-[4,5′-bipyrimidin]-2′-amine] | 100 nM |  |  | IC50 ([2]; Homo sapiens): 387 nM
12 | CC1(C)COCCN1c1nc(-c2cnc(N)cc2C(F)F)nc(N2CCOCC2(C)C)n1 [Compound 39, 5-[4,6-bis(3,3-dimethylmorpholin-4-yl)-1,3,5-triazin-2-yl]-4-(difluoromethyl)pyridin-2-amine] |  | 47 nM | 106 nM | 
13 | C[C@@H]1COC[C@H](C)N1c1nc(-c2cnc(N)cc2C(F)F)nc(N2[C@H](C)COC[C@@H]2C)n1 [Compound 40, 5-[4,6-bis[(3R,5S)-3,5-dimethylmorpholin-4-yl]-1,3,5-triazin-2-yl]-4-(difluoromethyl)pyridin-2-amine] | 252 nM |  |  | IC50 ([2]; Homo sapiens): 160 nM
14 | C[C@@H]1COCCN1c1nc(-c2cnc(N)cc2C(F)F)nc(N2CCOC[C@H]2C)n1 [Compound 41, 5-[4,6-bis[(3R)-3-methylmorpholin-4-yl]-1,3,5-triazin-2-yl]-4-(difluoromethyl)pyridin-2-amine] | 436 nM |  |  | IC50 ([2]; Homo sapiens): 261 nM
15 | CC1(C)COCCN1c1nc(-c2cnc(N)cc2C(F)F)nc(N2CCOCC2)n1 [Compound 42, 4-(difluoromethyl)-5-[4-(3,3-dimethylmorpholin-4-yl)-6-morpholino-1,3,5-triazin-2-yl]pyridin-2-amine] |  | 45 nM | 54 nM | 
16 | COC[C@@H]1COCCN1c1nc(-c2cnc(N)cc2C(F)F)nc(N2CCOC[C@H]2C)n1 [Compound 46, 4-(difluoromethyl)-5-[4-[(3R)-3-(methoxymethyl)morpholin-4-yl]-6-[(3R)-3-methylmorpholin-4-yl]-1,3,5-triazin-2-yl]pyridin-2-amine] |  | 426 nM | 956 nM | 
17 | C[C@@H]1COCCN1c1nc(-c2cnc(N)cc2C(F)F)nc(N2C3COCC2C3)n1 [Compound 50, 4-(difluoromethyl)-5-[4-[(3R)-3-methylmorpholin-4-yl]-6-(3-oxa-6-azabicyclo[3.1.1]heptan-6-yl)-1,3,5-triazin-2-yl]pyridin-2-amine] |  | 407 nM | 1560 nM | 
18 | CC[C@@H]1COCCN1c1nc(-c2cnc(N)cc2C(F)F)nc(N2CCOC[C@H]2CC)n1 [Compound 54, 5-[4,6-bis[(3R)-3-ethylmorpholin-4-yl]-1,3,5-triazin-2-yl]-4-(difluoromethyl)pyridin-2-amine] |  | 209 nM | 354 nM | 
19 | Nc1cc(C(F)F)c(-c2nc(N3CCOCC34CCC4)nc(N3CCOCC34CCC4)n2)cn1 [Compound 55, 5-[4,6-bis(8-oxa-5-azaspiro[3.5]nonan-5-yl)-1,3,5-triazin-2-yl]-4-(difluoromethyl)pyridin-2-amine] |  | 526 nM | 942 nM | 
20 | C[C@@H]1COCCN1c1nc(-c2cnc(N)cc2C(F)F)nc(N2[C@H](C)COC[C@H]2C)n1 [Compound 78, 4-(difluoromethyl)-5-[4-[(3R,5R)-3,5-dimethylmorpholin-4-yl]-6-[(3R)-3-methylmorpholin-4-yl]-1,3,5-triazin-2-yl]pyridin-2-amine] |  | 392 nM | 506 nM | 
21 | C[C@@H]1COCCN1c1nc(-c2cnc(N)cc2C(F)F)nc(N2[C@@H](C)COC[C@@H]2C)n1 [Compound 79, 4-(difluoromethyl)-5-[4-[(3S,5S)-3,5-dimethylmorpholin-4-yl]-6-[(3R)-3-methylmorpholin-4-yl]-1,3,5-triazin-2-yl]pyridin-2-amine] |  | 136 nM | 200 nM | 
22 | C[C@H]1COC[C@H](C)N1c1nc(-c2cnc(N)cc2C(F)F)nc(N2[C@@H](C)COC[C@@H]2C)n1 [Compound 83, 5-[4,6-bis[(3S,5S)-3,5-dimethylmorpholin-4-yl]-1,3,5-triazin-2-yl]-4-(difluoromethyl)pyridin-2-amine] | 379 nM |  |  | IC50 ([2]; Homo sapiens): 294 nM
23 | CC[C@H]1COCCN1c1nc(-c2cnc(N)cc2C(F)F)nc(N2CCOC[C@H]2C)n1 [Compound 85, 4-(difluoromethyl)-5-[4-[(3S)-3-ethylmorpholin-4-yl]-6-[(3R)-3-methylmorpholin-4-yl]-1,3,5-triazin-2-yl]pyridin-2-amine] |  | 241 nM |  | 
24 | CC[C@@H]1COCCN1c1nc(-c2cnc(N)cc2C(F)F)nc(N2CCOC[C@H]2C)n1 [Compound 86, 4-(difluoromethyl)-5-[4-[(3R)-3-ethylmorpholin-4-yl]-6-[(3R)-3-methylmorpholin-4-yl]-1,3,5-triazin-2-yl]pyridin-2-amine] |  |  | 231 nM | 
25 | CC[C@@H](C(N)=O)N1CCCC1=O [Levetiracetam, reference compound] |  |  |  | Threshold difference between nonepileptic and epileptic [3, 4]: −4%; Threshold difference between vehicle and drug threshold, nonepileptic [3, 4]: 21%
26 | CCC1(c2ccccc2)C(=O)NC(=O)NC1=O [Phenobarbital, reference compound] |  |  |  | CC50 ([3]; epileptic mice): 26.56 mA; threshold increase ([3]; epileptic mice): 66%; CC50 ([3]; nonepileptic mice): 25.7 mA; threshold increase ([3]; nonepileptic mice): 69%; duration of noticeable sedation ([3]; mice observed in home cages after injection): more than 60 min
27 | CO[C@H]1C[C@@H]2CC[C@@H](C)[C@@](O)(O2)C(=O)C(=O)N2CCCC[C@H]2C(=O)O[C@H]([C@H](C)C[C@@H]2CC[C@@H](O)[C@H](OC)C2)CC(=O)[C@H](C)/C=C(\C)[C@@H](O)[C@@H](OC)C(=O)[C@H](C)C[C@H](C)/C=C/C=C/C=C/1C [rapamycin, reference compound] |  |  |  | increase of the seizure threshold in MEST ([3]; epileptic mice): 5%; increase of the seizure threshold in MEST ([3]; nonepileptic mice): 13%; increase of the threshold ([3]; epileptic mice): no effect; increase of the threshold ([3]; nonepileptic mice): 20%
